Source: patent US20020052295A1, “Diacyl derivatives of propylene diamine having herbicidal activity” (priority 1999, published 2002)

What was measured:
Details in all cases: lowest tested rate giving 80% or greater inhibition, approx. 14 days after planting and treating, greenhouse
ABUTH = assay: Pre-emergence herbicidal activity on ABUTH (velvetleaf); assay type: in vivo, Abutilon theophrasti
Summary of the method: (§1)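 GR80 values come from percent inhibition relative to untreated plants, rated roughly 14 days after planting and treating, with rates up to typically 1000 g/ha. Compound was sprayed onto the soil over freshly covered seeds as a dilution in 50:50 acetone/water; pots kept in greenhouse at 30/21° C. day/night after 0.64 cm overhead watering.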

SOLNI = assay: Pre-emergence herbicidal activity on SOLNI (black nightshade); assay type: in vivo, Solanum nigrum
Summary of the method: as §1

AMARE = assay: Pre-emergence herbicidal activity on AMARE (redroot pigweed); assay type: in vivo, Amaranthus retroflexus
Summary of the method: as §1

DATST = assay: Pre-emergence herbicidal activity on DATST (jimsonweed); assay type: in vivo, Datura stramonium
Summary of the method: as §1

CHEAL = assay: Pre-emergence herbicidal activity on CHEAL (common lambsquarters); assay type: in vivo, Chenopodium album
Summary of the method: as §1

CONAR = assay: Pre-emergence herbicidal activity on CONAR (field bindweed); assay type: in vivo, Convolvulus arvensis
Summary of the method: as §1

POROL = assay: Pre-emergence herbicidal activity on POROL (common purslane); assay type: in vivo, Portulaca oleracea
Summary of the method: as §1

CIRAR = assay: Pre-emergence herbicidal activity on CIRAR (canada thistle, seedling); assay type: in vivo, Cirsium arvense
Summary of the method: as §1

ECHCG = assay: Pre-emergence herbicidal activity on ECHCG (barnyardgrass); assay type: in vivo, Echinochloa crus-galli
Text: (§2) All such uses, and the biological activity enabling such uses, are embraced by the term “herbicidal” herein. Tables 15 and 16 summarize results of tests conducted as described below to determine the pre-emergence herbicidal activity, in the form of a GR80 value, of illustrative compounds of this invention. […] Where herbicidal activity was evident but 80% inhibition was not achieved at the highest rate tested (typically 1000 g/ha), an asterisk (*) is shown in the following tables. Herbicidal activity evident in the form of symptoms of phytotoxicity, in the absence of at least 80% inhibition at any rate, is indicated in the tables by “phyto”. A blank cell in the following tables indicates no herbicidal or phytotoxic response at any rate tested.
(§3) The pre-emergence tests were conducted by the following procedure. Topsoil was sieved to pass through a 1.27 cm screen. Fertilizer was added to the topsoil and the mixture was then sterilized by heating. The topsoil mixture was placed in a pot and compacted to a depth of 1.0 to 1.25 cm from the top of the pot. Seeds of each of several monocotyledonous and dicotyledonous annual plant species were placed on top of the soil. Additional soil was subsequently placed over the seeds to level-fill the pot. A known amount of each test compound dissolved or suspended in an appropriate organic solvent was diluted with a 50:50 mix of acetone and water and applied to the surface of the soil. After treatment the plants were placed in a greenhouse with a 30/21° C. day/night temperature regime where they received 0.64 cm of overhead irrigation. All subsequent watering consisted of a light overhead mist and/or subirrigation as needed for germination and growth.
(§4) Approximately 14 days after planting and treating, the plants were observed and herbicidal efficacy recorded as percent inhibition by comparison with untreated plants.
(§5) The plant species usually regarded as weeds which were utilized in the tests are identified in the tables below according to the following legend, in which “d” indicates a dicotyledonous species and “m” a monocotyledonous species. All monocotyledonous species included in the tests herein are grasses.

PANMI = assay: Pre-emergence herbicidal activity on PANMI (wild proso millet); assay type: in vivo, Panicum miliaceum
Summary of the method: as §1

SORHA = assay: Pre-emergence herbicidal activity on SORHA (johnsongrass, seedling); assay type: in vivo, Sorghum halepense
Summary of the method: as §1

SETFA = assay: Pre-emergence herbicidal activity on SETFA (giant foxtail); assay type: in vivo, Setaria faberi
Summary of the method: as §1

PANDI = assay: Pre-emergence herbicidal activity on PANDI (fall panicum); assay type: in vivo, Panicum dichotomiflorum
Summary of the method: as §1

SORVU = assay: Pre-emergence herbicidal activity on SORVU (shattercane); assay type: in vivo, Sorghum vulgare
Text: as §2, §3, §4, §5

BRAPP = assay: Pre-emergence herbicidal activity on BRAPP (broadleaf signalgrass); assay type: in vivo, Brachiaria platyphylla
Summary of the method: as §1

DIGSA = assay: Pre-emergence herbicidal activity on DIGSA (large crabgrass); assay type: in vivo, Digitaria sanguinalis
Summary of the method: as §1

| Structure (SMILES) | Pre-emergence activity (GR80) on ABUTH (ABUTH) [g/ha] | Pre-emergence activity (GR80) on SOLNI (SOLNI) [g/ha] | Pre-emergence activity (GR80) on AMARE (AMARE) [g/ha] | Pre-emergence activity (GR80) on DATST (DATST) [g/ha] | Pre-emergence activity (GR80) on CHEAL (CHEAL) [g/ha] | Pre-emergence activity (GR80) on CONAR (CONAR) [g/ha] | Pre-emergence activity (GR80) on PORAL (POROL) [g/ha] | Pre-emergence activity (GR80) on CIRAR (CIRAR) [g/ha] | Pre-emergence activity (GR80) on ECHCG (ECHCG) | Pre-emergence activity (GR80) on PANMI (PANMI) [g/ha] | Pre-emergence activity (GR80) on SORHA (SORHA) | Pre-emergence activity (GR80) on SETFA (SETFA) [g/ha] | Pre-emergence activity (GR80) on PANDI (PANDI) [g/ha] | Pre-emergence activity (GR80) on SORVU (SORVU) | Pre-emergence activity (GR80) on BRAPP (BRAPP) | Pre-emergence activity (GR80) on DIGSA (DIGSA) [g/ha] |
| --- | --- | --- | --- | --- | --- | --- | --- | --- | --- | --- | --- | --- | --- | --- | --- | --- |
| Cc1ccc(Cl)cc1C(=O)NC(C)CNC(=O)c1cccc(C(F)(F)F)c1 (stereo not shown) [Example 47] | 250 | 125 | 64 | 250 | 64 | 750 | 125 | 125 | phyto | 250 | 750 g/ha | 250 | 250 | phyto | 500 g/ha | 125 |
| Cc1c(Cl)cccc1C(=O)NC(C)CNC(=O)c1cccc(C(F)(F)F)c1 (stereo not shown) [Example 51] | 250 | 125 | 125 | 250 | 64 | 1000 | 64 | 125 | * (Where herbicidal activity was evident but 80% inhibition was not achieved at the highest rate tested (typically 1000 g/ha), an asterisk (*) is shown) | 250 | 1000 g/ha | 250 | 250 | phyto | 500 g/ha | 64 |
| CC(CNC(=O)c1cccc(C(F)(F)F)c1)NC(=O)c1cccc(Cl)c1F (stereo not shown) [Example 49] | 64 | 125 | 64 | 64 | 64 | 750 | 64 | 64 | 500 g/ha | 125 | 250 g/ha | 125 | 64 | * (Where herbicidal activity was evident but 80% inhibition was not achieved at the highest rate tested (typically 1000 g/ha), an asterisk (*) is shown) | 500 g/ha | 64 |
| Cc1c(Cl)cccc1C(=O)NC(C)CNC(=O)c1cccc(C(F)(F)F)c1F (stereo not shown) [Example 150] | 1000 | 64 | 32 | 32 | 32 | 125 | 32 | 125 | * (Where herbicidal activity was evident but 80% inhibition was not achieved at the highest rate tested (typically 1000 g/ha), an asterisk (*) is shown) | 64 | * (Where herbicidal activity was evident but 80% inhibition was not achieved at the highest rate tested (typically 1000 g/ha), an asterisk (*) is shown) | 125 | 125 | phyto | * (Where herbicidal activity was evident but 80% inhibition was not achieved at the highest rate tested (typically 1000 g/ha), an asterisk (*) is shown) | 32 |
